Measurements taken from patent US9604961B2, “Histone demethylase inhibitors” (Celgene Quanticel Research, Inc., priority 2012, dated 2017).

Legend:
Type in all cases: biochemical
Jarid1B = Jarid1B (Homo sapiens (Human), UniProt Q9UGL1); assay: Jarid1B in vitro enzyme inhibition assay (TR-FRET)
Jarid1A = Jarid1A (Homo sapiens (Human), UniProt P29375); assay: Jarid1A in vitro enzyme inhibition assay (TR-FRET)
From the text: The enzymatic assay of Jarid1A activity is based upon Time Resolved-Fluorescence Resonance Energy Transfer (TR-FRET) detection.

JMJD2C = JMJD2C (Homo sapiens (Human), UniProt Q9H3R0); assay: JMJD2C in vitro enzyme inhibition assay (TR-FRET)
Sequence of JMJD2C (Q9H3R0 2-372): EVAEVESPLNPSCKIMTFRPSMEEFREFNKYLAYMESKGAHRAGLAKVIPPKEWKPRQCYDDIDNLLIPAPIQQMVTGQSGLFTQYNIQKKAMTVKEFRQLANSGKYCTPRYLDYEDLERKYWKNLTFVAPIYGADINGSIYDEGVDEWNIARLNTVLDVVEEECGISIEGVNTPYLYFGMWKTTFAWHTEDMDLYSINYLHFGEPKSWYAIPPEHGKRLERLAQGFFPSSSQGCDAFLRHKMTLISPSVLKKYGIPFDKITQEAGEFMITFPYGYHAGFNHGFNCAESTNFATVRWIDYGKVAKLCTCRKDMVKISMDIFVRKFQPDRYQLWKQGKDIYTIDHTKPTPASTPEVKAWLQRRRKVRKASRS

Sequence of Jarid1A (P29375 1-1090): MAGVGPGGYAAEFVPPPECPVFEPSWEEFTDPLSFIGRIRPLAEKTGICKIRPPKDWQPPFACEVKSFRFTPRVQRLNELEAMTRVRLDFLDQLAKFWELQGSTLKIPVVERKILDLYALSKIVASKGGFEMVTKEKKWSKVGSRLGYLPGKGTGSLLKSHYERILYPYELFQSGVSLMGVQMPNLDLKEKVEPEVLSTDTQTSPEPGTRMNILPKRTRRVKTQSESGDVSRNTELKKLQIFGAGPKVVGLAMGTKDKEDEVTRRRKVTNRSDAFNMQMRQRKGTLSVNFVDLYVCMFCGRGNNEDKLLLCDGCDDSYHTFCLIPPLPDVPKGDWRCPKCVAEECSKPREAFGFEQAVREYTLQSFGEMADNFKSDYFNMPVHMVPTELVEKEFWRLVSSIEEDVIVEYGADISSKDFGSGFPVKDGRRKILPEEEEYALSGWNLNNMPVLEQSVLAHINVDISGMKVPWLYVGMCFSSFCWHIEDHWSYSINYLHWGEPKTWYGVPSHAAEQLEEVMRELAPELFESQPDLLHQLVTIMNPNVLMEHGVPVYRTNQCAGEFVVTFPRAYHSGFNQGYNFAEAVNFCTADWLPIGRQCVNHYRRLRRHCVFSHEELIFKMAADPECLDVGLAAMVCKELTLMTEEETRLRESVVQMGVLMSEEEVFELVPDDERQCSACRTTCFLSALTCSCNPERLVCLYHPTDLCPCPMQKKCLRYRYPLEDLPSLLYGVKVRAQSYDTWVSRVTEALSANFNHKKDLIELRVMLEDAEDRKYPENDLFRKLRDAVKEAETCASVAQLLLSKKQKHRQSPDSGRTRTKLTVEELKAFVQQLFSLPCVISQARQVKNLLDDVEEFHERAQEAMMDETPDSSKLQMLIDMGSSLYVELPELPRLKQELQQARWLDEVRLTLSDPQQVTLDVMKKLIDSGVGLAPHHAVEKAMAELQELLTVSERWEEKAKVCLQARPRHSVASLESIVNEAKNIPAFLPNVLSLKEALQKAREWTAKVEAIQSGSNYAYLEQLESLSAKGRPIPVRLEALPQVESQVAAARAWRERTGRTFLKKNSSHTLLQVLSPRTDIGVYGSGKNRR
Sequence of Jarid1B (Q9UGL1 2-751): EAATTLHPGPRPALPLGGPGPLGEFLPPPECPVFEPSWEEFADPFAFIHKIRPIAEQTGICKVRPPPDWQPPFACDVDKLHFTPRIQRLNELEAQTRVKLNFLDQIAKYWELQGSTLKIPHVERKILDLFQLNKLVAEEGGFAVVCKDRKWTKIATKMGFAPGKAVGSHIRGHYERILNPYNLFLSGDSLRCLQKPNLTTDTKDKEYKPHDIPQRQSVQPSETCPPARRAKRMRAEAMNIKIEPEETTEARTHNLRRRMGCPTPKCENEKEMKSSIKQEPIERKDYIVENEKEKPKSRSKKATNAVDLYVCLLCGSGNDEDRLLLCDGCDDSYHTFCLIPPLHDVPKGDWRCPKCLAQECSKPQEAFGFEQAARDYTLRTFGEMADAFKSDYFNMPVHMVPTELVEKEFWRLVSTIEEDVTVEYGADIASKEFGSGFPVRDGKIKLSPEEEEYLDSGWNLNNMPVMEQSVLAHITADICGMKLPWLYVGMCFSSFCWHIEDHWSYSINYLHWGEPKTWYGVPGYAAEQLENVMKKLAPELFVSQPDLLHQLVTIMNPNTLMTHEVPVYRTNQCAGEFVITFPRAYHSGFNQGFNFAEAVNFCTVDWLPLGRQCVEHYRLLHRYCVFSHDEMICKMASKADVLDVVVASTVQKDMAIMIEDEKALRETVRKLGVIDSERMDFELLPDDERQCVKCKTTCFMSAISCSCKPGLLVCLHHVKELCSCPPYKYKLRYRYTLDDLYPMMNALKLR

Row | Compound | IC50 (Jarid1B) | IC50 (Jarid1A) | IC50 (JMJD2C)
1 | COc1cc(I)ccc1COc1ccnn1-c1cc(C(=O)O)ccn1 [Example 145, 2-[5-[(4-iodo-2-methoxyphenyl)methoxy]pyrazol-1-yl]pyridine-4-carboxylic acid] | < 100 nM | < 100 nM | 100 to 1000 nM
2 | COc1cc(C)nn1-c1cc(C(=O)O)ccn1 [Example 37, 2-(5-methoxy-3-methyl-1H-pyrazol-1-yl)isonicotinic acid] | 1000 to 10000 nM | 1000 to 10000 nM | 1000 to 10000 nM
3 | COc1cc(Cl)ccc1COc1ccnn1-c1cc(C(=O)O)ccn1 [Example 90, 2-[5-[(4-chloro-2-methoxyphenyl)methoxy]pyrazol-1-yl]pyridine-4-carboxylic acid] | < 100 nM | < 100 nM | < 100 nM
4 | O=C(O)c1ccnc(-n2nccc2OCc2ccc(F)cc2CCc2ccc(F)cc2)c1 [Example 121, 2-[5-[[4-fluoro-2-[2-(4-fluorophenyl)ethyl]phenyl]methoxy]pyrazol-1-yl]pyridine-4-carboxylic acid] | 100 to 1000 nM | 100 to 1000 nM | 1000 to 10000 nM
5 | O=C(O)c1ccnc(-n2ncc(CCO)c2OCc2ccc(F)cc2)c1 [Example 109, 2-[5-[(4-fluorophenyl)methoxy]-4-(2-hydroxyethyl)pyrazol-1-yl]pyridine-4-carboxylic acid] | < 100 nM | < 100 nM | 1000 to 10000 nM
6 | O=C(O)c1ccnc(-n2nccc2OCC2CCC(F)(F)CC2)c1 [Example 71, 2-{5-[(4,4-difluorocyclohexyl)methoxy]-1H-pyrazol-1-yl}pyridine-4-carboxylic acid] | < 100 nM | < 100 nM | 100 to 1000 nM
7 | O=C(O)c1ccnc(-n2nccc2OCc2ccc(Cl)c(OCc3ccc(F)cc3)c2)c1 [Example 138, 2-[5-[[4-chloro-3-[(4-fluorophenyl)methoxy]phenyl]methoxy]pyrazol-1-yl]pyridine-4-carboxylic acid] | < 100 nM | < 100 nM | 100 to 1000 nM
8 | CCc1cc(C)ccc1COc1ccnn1-c1cc(C(=O)O)ccn1 [Example 135, 2-[5-[(2-ethyl-4-methylphenyl)methoxy]pyrazol-1-yl]pyridine-4-carboxylic acid] | 100 to 1000 nM | 100 to 1000 nM | 1000 to 10000 nM
9 | O=C(O)c1ccnc(-n2nccc2OCc2ccc(Cl)cc2/C=C/c2ccc(F)cc2)c1 [Example 120, 2-[5-[[4-chloro-2-[(E)-2-(4-fluorophenyl)ethenyl]phenyl]methoxy]pyrazol-1-yl]pyridine-4-carboxylic acid] | 100 to 1000 nM | 100 to 1000 nM | 1000 to 10000 nM
10 | Cc1c(-c2ccccc2)cnn1-c1cc(C(=O)O)ccn1 [Example 36, 2-(5-methyl-4-phenyl-1H-pyrazol-1-yl)isonicotinic acid] | 100 to 1000 nM | 100 to 1000 nM | > 10000 nM
11 | O=C(O)c1ccnc(-n2nccc2OCc2ccc(C3CC3)c(Cl)c2)c1 [Example 154, 2-[5-[(3-chloro-4-cyclopropylphenyl)methoxy]pyrazol-1-yl]pyridine-4-carboxylic acid] | 100 to 1000 nM | 100 to 1000 nM | 1000 to 10000 nM
12 | O=C(O)c1ccnc(-n2nccc2OCC2CC(F)(F)C2)c1 [Example 83, 2-[5-[(3,3-difluorocyclobutyl)methoxy]pyrazol-1-yl]pyridine-4-carboxylic acid] | < 100 nM | < 100 nM | < 100 nM
13 | O=C(O)c1ccnc(-n2nccc2-c2ccc(Br)cc2)c1 [Example 46, 2-[5-(4-bromophenyl)-1H-pyrazol-1-yl]pyridine-4-carboxylic acid] | 100 to 1000 nM | 100 to 1000 nM | 1000 to 10000 nM
14 | O=C(O)c1ccnc(-n2nccc2-c2ccccc2)c1 [Example 26, 2-(5-phenyl-1H-pyrazol-1-yl)isonicotinic acid] | 1000 to 10000 nM | 1000 to 10000 nM | 1000 to 10000 nM
15 | Cc1ccc(COc2ccnn2-c2cc(C(=O)O)ccn2)c(F)c1 [Example 131, 2-[5-[(2-fluoro-4-methylphenyl)methoxy]pyrazol-1-yl]pyridine-4-carboxylic acid] | < 100 nM | < 100 nM | 100 to 1000 nM
16 | 2-{5-[(2-methyl-2H-indazol-5-yl)methoxy]-1H-pyrazol-1-yl}pyridine-4-carboxylic acid [Example 51] | < 100 nM | < 100 nM | 100 to 1000 nM
17 | Cc1ccc(COc2ccnn2-c2cc(C(=O)O)ccn2)c(C#N)c1 [Example 134, 2-[5-[(2-cyano-4-methylphenyl)methoxy]pyrazol-1-yl]pyridine-4-carboxylic acid] | < 100 nM | < 100 nM | 100 to 1000 nM
18 | CCc1ccc(COc2ccnn2-c2cc(C(=O)O)ccn2)cc1Cl [Example 95, 2-[5-[(3-chloro-4-ethylphenyl)methoxy]pyrazol-1-yl]pyridine-4-carboxylic acid] | < 100 nM | < 100 nM | 100 to 1000 nM

Row | Compound | IC50 (Jarid1B) | IC50 (Jarid1A) | IC50 (JMJD2C)
19 | O=C(O)c1ccnc(-n2nccc2CCc2ccccc2)c1 [Example 34, 2-(5-phenethyl-1H-pyrazol-1-yl)isonicotinic acid] | 1000 to 10000 nM | 1000 to 10000 nM | > 10000 nM
20 | O=C(O)c1ccnc(-n2nccc2OCc2ccc(C3CC3)cc2Cl)c1 [Example 152, 2-[5-[(2-chloro-4-cyclopropylphenyl)methoxy]pyrazol-1-yl]pyridine-4-carboxylic acid] | 100 to 1000 nM | 100 to 1000 nM | 1000 to 10000 nM
21 | CCc1cnn(-c2cc(C(=O)O)ccn2)c1OCc1ccc(F)cc1 [Example 85, 2-[4-ethyl-5-[(4-fluorophenyl)methoxy]pyrazol-1-yl]pyridine-4-carboxylic acid] | < 100 nM | < 100 nM | 100 to 1000 nM
22 | COCCOc1cc(Cl)ccc1COc1ccnn1-c1cc(C(=O)O)ccn1 [Example 116, 2-[5-[[4-chloro-2-(2-methoxyethoxy)phenyl]methoxy]pyrazol-1-yl]pyridine-4-carboxylic acid] | < 100 nM | < 100 nM | 100 to 1000 nM
23 | O=C(O)c1ccnc(-n2nccc2OCc2ccc(F)cc2/C=C/c2ccc(F)cc2)c1 [Example 119, 2-[5-[[4-fluoro-2-[(E)-2-(4-fluorophenyl)ethenyl]phenyl]methoxy]pyrazol-1-yl]pyridine-4-carboxylic acid] | 100 to 1000 nM | 100 to 1000 nM | 1000 to 10000 nM
24 | O=C(O)c1ccnc(-n2nccc2-c2ccc(Cl)c(O)c2)c1 [Example 23, 2-(5-(4-chloro-3-hydroxyphenyl)-1H-pyrazol-1-yl)isonicotinic acid] | 100 to 1000 nM | 100 to 1000 nM | 1000 to 10000 nM
25 | CCc1cc(-c2ccc(C)cc2)n(-c2cc(C(=O)O)ccn2)n1 [Example 30, 2-(3-ethyl-5-p-tolyl-1H-pyrazol-1-yl)isonicotinic acid] | 100 to 1000 nM | 1000 to 10000 nM | 1000 to 10000 nM
26 | O=C(O)c1ccnc(-n2nccc2OCc2ccc(F)c(Cl)c2)c1 [Example 76, 2-{5-[(3-chloro-4-fluorobenzyl)oxy]-1H-pyrazol-1-yl}pyridine-4-carboxylic acid] | < 100 nM | < 100 nM | < 100 nM
27 | CN(C)CCc1cnn(-c2cc(C(=O)O)ccn2)c1OCc1ccc(F)cc1 [Example 110, 2-[4-[2-(dimethylamino)ethyl]-5-[(4-fluorophenyl)methoxy]pyrazol-1-yl]pyridine-4-carboxylic acid] | < 100 nM | < 100 nM | 100 to 1000 nM
28 | O=C(O)c1ccnc(-n2nccc2OCc2ccc(C3CC3)cc2)c1 [Example 77, 2-{5-[(4-cyclopropylbenzyl)oxy]-1H-pyrazol-1-yl}pyridine-4-carboxylic acid] | < 100 nM | < 100 nM | 100 to 1000 nM
29 | CN(C)c1ccc(-c2ccnn2-c2cc(C(=O)O)ccn2)cc1 [Example 47, 2-{5-[4-(dimethylamino)phenyl]-1H-pyrazol-1-yl}pyridine-4-carboxylic acid] | 100 to 1000 nM | 100 to 1000 nM | 1000 to 10000 nM
30 | O=C(O)c1ccnc(-n2nccc2OCc2ccc(C(F)(F)F)cc2)c1 [Example 54, 2-(5-{[4-(trifluoromethyl)benzyl]oxy}-1H-pyrazol-1-yl)pyridine-4-carboxylic acid] | < 100 nM | < 100 nM | 100 to 1000 nM
31 | O=C(O)c1ccnc(-n2nccc2OCc2ccc(Cl)cc2)c1 [Example 53, 2-{5-[(4-chlorobenzyl)oxy]-1H-pyrazol-1-yl}pyridine-4-carboxylic acid] | < 100 nM | < 100 nM | < 100 nM
32 | O=C(O)c1ccnc(-n2nccc2OCc2cccc(O)c2)c1 [Example 73, 2-{5-[(3-hydroxybenzyl)oxy]-1H-pyrazol-1-yl}pyridine-4-carboxylic acid] | < 100 nM | < 100 nM | < 100 nM
33 | Cc1cc(Br)ccc1COc1ccnn1-c1cc(C(=O)O)ccn1 [Example 142, 2-[5-[(4-bromo-2-methylphenyl)methoxy]pyrazol-1-yl]pyridine-4-carboxylic acid] | 100 to 1000 nM | 100 to 1000 nM | 100 to 1000 nM
34 | O=C(O)c1ccnc(-n2nccc2-c2ccc(O)cc2)c1 [Example 18, 2-(5-(4-hydroxyphenyl)-1H-pyrazol-1-yl)isonicotinic acid] | 100 to 1000 nM | 100 to 1000 nM | 100 to 1000 nM
35 | Cc1ccc(-c2cc(C)nn2-c2cc(C(=O)O)ccn2)cc1 [Example 29, 2-(3-methyl-5-p-tolyl-1H-pyrazol-1-yl)isonicotinic acid] | 1000 to 10000 nM | 1000 to 10000 nM | 1000 to 10000 nM
36 | O=C(O)c1ccnc(-n2nccc2OCc2ccc(Cl)cc2CCc2ccc(F)cc2)c1 [Example 122, 2-[5-[[4-chloro-2-[2-(4-fluorophenyl)ethyl]phenyl]methoxy]pyrazol-1-yl]pyridine-4-carboxylic acid] | 100 to 1000 nM | 100 to 1000 nM | 1000 to 10000 nM
